# Reference: patent US7064124B2, “NF-κB inhibitor containing substituted benzoic acid derivative as active ingredient” (Daiichi Suntory Pharma Co., Ltd., priority 2001, dated 2006)
# Key:
# NF-κB = NF-κB luciferase reporter assay in A549/NF-κBLuc cells stimulated with IL-1β; format: cell-based, human; settings: Homo sapiens, A549, A549/NF-κBLuc cells; compound added 1 hour before IL-1β, then 3 hours incubation; luciferase activity; read-out: NF-κB Inhibitory Activity (IC50)
# Summary of the method: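 A549 cells stably carrying an NF-κB-driven luciferase reporter (pNFκB-Luc, G418-selected) pre-treated with compound for 1 h, then stimulated with IL-1β and incubated a further 3 h. Luciferase signal used to derive IC50 for NF-κB inhibition.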
melting point,IC50 (NF-κB),Structure (SMILES)
233 to 235 °C,5 µg/mL,"CC1=C(C)C(=O)C(Cc2ccc(O)c(C(=O)Nc3ccc(C(F)(F)F)cc3)c2)=C(C)C1=O [Example 235, N-[5-(3,5,6-Trimethyl-1,4-benzoquinon-2-yl)methyl-2-hydroxybenzoyl]-4-trifluoromethylaniline]"
223 to 225.5 °C,6 µg/mL,"COC1=C(OC)C(=O)C(Cc2ccc(O)c(C(=O)Nc3ccc(S(=O)(=O)C(F)(F)F)cc3)c2)=C(C)C1=O [Example 174, N-[5-(5,6-Dimethoxy-3-methyl-1,4-benzoquinon-2-yl)methyl-2-hydroxybenzoyl]-4-(trifluoromethylsulfonyl)aniline]"
152 to 154 °C,2 µg/mL,"COC1=C(OC)C(=O)C(Cc2ccc(O)c(C(=O)Nc3cccnc3Cl)c2)=C(C)C1=O [Example 187, N-(2-Chloropyridin-3-yl)-5-(5,6-dimethoxy-3-methyl-1,4-benzoquinon-2-yl)methyl-2-hydroxybenzamide]"
164.5 to 166 °C,4 µg/mL,"COC1=C(OC)C(=O)C(Cc2ccc(O)c(C(=O)Nc3ccc(CC#N)cc3)c2)=C(C)C1=O [Example 150, N-[5-(5,6-Dimethoxy-3-methyl-1,4-benzoquinon-2-yl)methyl-2-hydroxybenzoyl]-4-cyanomethylaniline]"
162 to 164 °C,50 µg/mL,"COC1=C(OC)C(=O)C(Cc2ccc(O)c(C(=O)Nc3ccc(N)cc3)c2)=C(C)C1=O.Cl [Example 205, N-[5-(5,6-Dimethoxy-3-methyl-1,4-benzoquinon-2-yl)methyl-2-hydroxybenzoyl]-p-phenylenediamine (hydrochloride)]"
176 to 179 °C,3 µg/mL,CCOC(=O)c1ccc(NC(=O)c2cc(CC3=C(C)C(=O)C(OC)=C(OC)C3=O)ccc2O)cc1 [Example 148]

# The next lines start with the compound.
Structure (SMILES),melting point,IC50 (NF-κB)
"COC1=C(OC)C(=O)C(Cc2ccc(OC(C)=O)c(C(=O)Nc3cccnc3Cl)c2)=C(C)C1=O [Example 186, N-(2-Chloropyridin-3-yl)-5-(5,6-dimethoxy-3-methyl-1,4-benzoquinon-2-yl)methyl-2-acetoxybenzamide]",128.5 to 130 °C,2 µg/mL
"COC1=C(OC)C(=O)C(Cc2ccc(OC(C)=O)c(C(=O)Nc3ccc(Cl)nc3)c2)=C(C)C1=O [Example 184, N-(6-Chloropyridin-3-yl)-5-(5,6-dimethoxy-3-methyl-1,4-benzoquinon-2-yl)methyl-2-acetoxybenzamide]",74.5 to 77.5 °C,56 µg/mL
"COC1=C(OC)C(=O)C(Cc2ccc(OCc3cccnc3)c(C(=O)NC3CCCCC3)c2)=C(C)C1=O [Example 171, N-Cyclohexyl-5-(5,6-dimethoxy-3-methyl-1,4-benzoquinon-2-yl)methyl-2-(3-pyridylmethyloxy)benzamide]",115 to 118 °C,26 µg/mL
"COC1=C(OC)C(=O)C(Cc2ccc(O)c(C(=O)Nc3cccnc3N3CCOCC3)c2)=C(C)C1=O [Example 223, N-(2-Morpholinopyridin-3-yl)-5-(5,6-dimethoxy-3-methyl-1,4-benzoquinon-2-yl)methyl-2-hydroxybenzamide]",210 to 212.5 °C,81 µg/mL
"COC1=C(OC)C(=O)C(Cc2ccc(OC(C)=O)c(C(=O)Nc3cc(OC)ncn3)c2)=C(C)C1=O [Example 228, N-(6-Methoxypyrimidin-4-yl)-5-(5,6-dimethoxy-3-methyl-1,4-benzoquinon-2-yl)methyl-2-acetoxybenzamide]",138.5 to 141 °C,64 µg/mL
"COC1=C(OC)C(=O)C(Cc2ccc(OC(C)=O)c(C(=O)Nc3ccc(S(=O)(=O)C(F)(F)F)cc3)c2)=C(C)C1=O [Example 173, N-[5-(5,6-Dimethoxy-3-methyl-1,4-benzoquinon-2-yl)methyl-2-acetoxybenzoyl]-4-(trifluoromethylsulfonyl)aniline]",84.5 to 87 °C,9 µg/mL
